Laboratory results taken from patent US20240400591A1 (Jacobio Pharmaceuticals Co., Ltd., priority 2021, published 2024).
Like-named read-outs stand apart in the source and are kept apart here.

Columns and labels:
[1] = molecular target: T1, His-p53 Y220C (94-294) protein (Homo sapiens, UniProt P04637, Y220C); assay: In vitro DNA binding assay (HTRF); type: biochemical; conditions: % activation normalized to 2 μM Ref-1a high control
T1 construct: His-p53 Y220C (94-294) protein

NUGC3 (P53 Y220C) = assay: Cell viability assay (CellTiter-Glo, 6 days), NUGC3; type: cell-based; conditions: cell viability, 6 days, CellTiter-Glo, read-out: NUGC3 (P53 Y220C) IC50
Method: (§1) Cells were collected and counted. A desired number of cells was seeded into 96-well microplate and cultured in 37° C. cell incubator overnight. Compounds dissolved in cell culture medium were added into cell plate and cultured for 6 days. After balancing CellTiter-Glo reagent and cells at room temperature for 30 min, equal volume of CellTiter-Glo reagents was added to assay plate and shaken for 2 min for cell lysis. The cells were balanced at room temperature for 10 minutes and Luminescence signal was read using Envision. The percent of cell viability for compounds treated wells were normalized between High control and low control. Wells containing cell culture medium and same percentage DMSO sewved as Low control. Wells containing cells and same percentage DMSO sewved as High control. Cell viability (%)=(Luminescence readoutCompound treated−Luminescence readoutLow control)/(Luminescence readoutHigh control−Luminescence readoutLow control)*100%. Then the data were analyzed either by fitting a 4-parameter logistic model or by Excel to calculate IC50 values. And the IC50 was the concentration at 50% Cell viability on the curve.

NUGC4 (P53 WT) = assay: Cell viability assay (CellTiter-Glo, 6 days), NUGC4; type: cell-based; conditions: cell viability, 6 days, CellTiter-Glo, read-out: NUGC4 (P53 WT) IC50
Method: as §1

[2] = system: NUGC-3_P53_Luc single clonal cell line (p53 Y220C); assay: Reporter gene assay (p53 RE luciferase); type: cell-based; conditions: luciferase reporter, 6 hours, normalized to Ref-1a (10 μM) high control, read-out: p53(Y220C)_NUGC-3 EC50
Method: NUGC-3_P53_Luc single clonal cell line was established using pGL4.38[luc2P/p53 RE/Hygro] Vector (E365A, promega). NUGC-3_P53-Luc single clonal cells were cultured in 37° C. cell incubator before use. NUGC-3-P53-Luc cells were collected and washed twice with PBS to remove phenol red and then resuspended in medium to a proper concentration. Tested compound dilutions were transferred into 384 well assay plates (PerkinElmer). A desired number of cells was seeded into the assay plate and cultured for 6 hours at 37° C. cell incubator. Britelite plus Luciferase Assay Reagent were added into each well and the luminescence value was recorded on Envision. The percent of activity value of compounds treated wells was normalized between high control and low control. Wells containing cells and Ref-1a (10 μM) sewved as high control, and wells containing cells and same percentage of DMSO sewved as low control. Activity value (%)=(Luminescence readoutCompound treated−Luminescence readoutLow control)/(Luminescence readoutHigh control−Luminescence readoutLow control)*100%. Then the data were analyzed either by fitting a 4-parameter logistic model or by Excel to calculate EC50 values and the EC50 was the concentration at 50% Activity on the curve.

EC50 [1] [nM] | SMILES | IC50 (NUGC3 (P53 Y220C); Homo sapiens, NUGC-3, 144 h) [nM] | IC50 (NUGC4 (P53 WT); Homo sapiens, NUGC-4, 144 h) [nM] | EC50 ([2]; Homo sapiens, NUGC-3) [nM] | EC50 ([2]; Homo sapiens, NUGC-3, 6 h) [nM] | IC50 (NUGC3 (P53 Y220C)) [nM] | IC50 (NUGC4 (P53 WT)) [nM] | EC50 [2] [nM]
105 | COc1cc(P(C)(C)=O)ccc1NCC#Cc1sc2c(N[C@@H]3CCN(CC(C)C)C[C@@H]3F)cccc2c1CC(F)(F)F (racemic) [Example 101, (4-((3-(7-(((Z)-3-fluoro-1-isobutylpiperidin-4-yl)amino)-3-(2,2,2-trifluoroethyl)benzo[b]thiophen-2-yl)prop-2-yn-1-yl)amino)-3-methoxyphenyl)dimethylphosphine oxide] | 2050 | 2050 | 360 | – | – | – | –
91 | COc1cc(P(C)(C)=O)ccc1NCC#Cc1sc2c(N[C@@H]3CCN(C4CCC4)C[C@@H]3F)cccc2c1CC(F)(F)F (racemic) [Example 103, (4-((3-(7-(((Z)-1-cyclobutyl-3-fluoropiperidin-4-yl)amino)-3-(2,2,2-trifluoroethyl)benzo[b]thiophen-2-yl)prop-2-yn-1-yl)amino)-3-methoxyphenyl)dimethylphosphine oxide] | 1280 | 2650 | 210 | – | – | – | –
33 | CNC(=O)c1cc(NCC#Cc2sc3c(NC4CCN(C)CC4F)cccc3c2CC(F)(F)F)c(OC)cc1P(C)(C)=O (racemic) [Example 109, 2-dimethylphosphoryl-5-[3-[7-[((Z)-3-fluoro-1-methyl-4-piperidyl)amino]-3-(2,2,2-trifluoroethyl)benzothiophen-2-yl]prop-2-ynylamino]-4-methoxy-N-methyl-benzamide] | 1190 | 47700 | 120 | – | – | – | –
69 | CN1CC[C@@H](Nc2cccc3c(CC(F)(F)F)c(C#CCNC(=O)c4cnn(C(C)(C)C)c4)sc23)[C@@H](F)C1 (racemic) [Example 129, 1-(tert-butyl)-N-(3-(7-(((Z)-3-fluoro-1-methylpiperidin-4-yl)amino)-3-(2,2,2-trifluoroethyl)benzo[b]thiophen-2-yl)prop-2-yn-1-yl)-1H-pyrazole-4-carboxamide] | 1850 | 8950 | 180 | – | – | – | –
117 | CN1CC[C@@H](Nc2cccc3c(CC(F)(F)F)c(C#CCNC(=O)c4ccn(C(C)(C)C)c4)sc23)[C@@H](F)C1 (racemic) [Example 130, 1-tert-butyl-N-[3-[7-[((Z)-3-fluoro-1-methyl-4-piperidyl)amino]-3-(2,2,2-trifluoroethyl)benzothiophen-2-yl]prop-2-ynyl]pyrrole-3-carboxamide] | 3550 | 6850 | 360 | – | – | – | –
18 | COc1cc(P(C)(C)=O)ccc1NCC#Cc1sc2c(NC3CCN(C)CC3F)cccc2c1C(O)C(F)(F)F (racemic) [Example 188, (4-((3-(7-((3-fluoro-1-methylpiperidin-4-yl)amino)-3-(2,2,2-trifluoro-1-hydroxyethyl)benzo[b]thiophen-2-yl)prop-2-yn-1-yl)amino)-3-methoxyphenyl)dimethylphosphine oxide(racemic)] | 1900 | 40600 | 60 | – | – | – | –
75 | COCCNC(=O)c1ccc(NCC#Cc2sc3c(N[C@@H]4CCN(C)C[C@@H]4F)cccc3c2CC(F)(F)F)c(OC)c1 (relative stereo) [Example 85, 4-((3-(7-(((Z)-3-fluoro-1-methylpiperidin-4-yl)amino)-3-(2,2,2-trifluoroethyl)benzo[b]thiophen-2-yl)prop-2-yn-1-yl)amino)-3-methoxy-N-(2-methoxyethyl)benzamide] | 1540 | 8240 | 220 | – | – | – | –
85 | COc1cc(C(=O)NC2CCN(C)CC2(F)F)ccc1NCC#Cc1sc2c(N[C@@H]3CCN(C)C[C@@H]3F)cccc2c1CC(F)(F)F (relative stereo) [Example 94, N-(3,3-difluoro-1-methylpiperidin-4-yl)-4-((3-(7-(((Z)-3-fluoro-1-methylpiperidin-4-yl)amino)-3-(2,2,2-trifluoroethyl)benzo[b]thiophen-2-yl)prop-2-yn-1-yl)amino)-3-methoxybenzamide] | 1840 | 2750 | 190 | – | – | – | –
71 | COCC(O)CN1CC[C@@H](Nc2cccc3c(CC(F)(F)F)c(C#CCNc4ccc(P(C)(C)=O)cc4OC)sc23)[C@@H](F)C1 (relative stereo) [Example 97, 1-[(Z)-4-[[2-[3-(4-dimethylphosphoryl-2-methoxy-anilino)prop-1-ynyl]-3-(2,2,2-trifluoroethyl)benzothiophen-7-yl]amino]-3-fluoro-1-piperidyl]-3-methoxy-propan-2-ol] | 960 | 5720 | 150 | – | – | – | –
82 | COc1cc(P(C)(C)=O)ccc1NCC#Cc1sc2c(N[C@@H]3CCN(C4CCCC4)C[C@@H]3F)cccc2c1CC(F)(F)F (relative stereo) [Example 104, (4-((3-(7-(((Z)-1-cyclopentyl-3-fluoropiperidin-4-yl)amino)-3-(2,2,2-trifluoroethyl)benzo[b]thiophen-2-yl)prop-2-yn-1-yl)amino)-3-methoxyphenyl)dimethylphosphine oxide] | 1380 | 1750 | 240 | – | – | – | –
56 | CN1CCC(Nc2cccc3c(CC(F)(F)F)c(C#CCNc4ccc(P(C)(C)=O)cc4OCF)sc23)C(F)C1 (stereo not shown) [Example 10, (4-((3-(7-(((Z)-3-fluoro-1-methylpiperidin-4-yl)amino)-3-(2,2,2-trifluoroethyl)benzo[b]thiophen-2-yl)prop-2-yn-1-yl)amino)-3-(fluoromethoxy)phenyl)dimethylphosphine oxide] | – | – | – | – | 1680 | 21000 | 230
34 | COc1cc(P(C)(C)=O)ccc1NCC#Cc1sc2c(NC3CCN(C)CC3F)cccc2c1CC(F)(F)F (stereo not shown) [Example 15, (4-((3-(7-(((Z)-3-fluoro-1-methylpiperidin-4-yl)amino)-3-(2,2,2-trifluoroethyl)benzo[b]thiophen-2-yl)prop-2-yn-1-yl)amino)-3-methoxyphenyl)dimethylphosphine oxide] | – | – | – | – | 360 | 6990 | 310
47 | COc1cc(C(N)=O)ccc1NCC#Cc1sc2c(NC3CCN(C)CC3F)cccc2c1CC(F)(F)F (stereo not shown) [Example 46, 4-((3-(7-(((Z)-3-fluoro-1-methylpiperidin-4-yl)amino)-3-(2,2,2-trifluoroethyl)benzo[b]thiophen-2-yl)prop-2-yn-1-yl)amino)-3-methoxybenzamide] | – | – | – | – | 1350 | 10500 | 170

SMILES | EC50 [1] [nM] | IC50 (NUGC3 (P53 Y220C); Homo sapiens, NUGC-3, 144 h) [nM] | IC50 (NUGC4 (P53 WT); Homo sapiens, NUGC-4, 144 h) [nM] | EC50 ([2]; Homo sapiens, NUGC-3) [nM] | EC50 ([2]; Homo sapiens, NUGC-3, 6 h) [nM] | IC50 (NUGC3 (P53 Y220C)) [nM] | IC50 (NUGC4 (P53 WT)) [nM] | EC50 [2] [nM]
COc1cc(P(C)(C)=O)ccc1NCC#Cc1sc2c(NC3CCN(C)CC3F)cccc2c1CC#N (racemic) [Example 107, 2-(2-(3-((4-(dimethylphosphoryl)-2-methoxyphenyl)amino)prop-1-yn-1-yl)-7-(((Z)-3-fluoro-1-methylpiperidin-4-yl)amino)benzo[b]thiophen-3-yl)acetonitrile] | 60 | 7250 | 20600 | 960 | – | – | – | –
COc1cc(P(C)(C)=O)ccc1NCC#Cc1sc2c(NC3[C@@H]4COC[C@H]3CN(C)C4)cccc2c1CC(F)(F)F (single isomer, unassigned) [Example 196] | 67 | 6710 | 18600 | – | 660 | – | – | –
COc1cc(P(C)(C)=O)ccc1NCC#Cc1sc2c(NC3[C@@H]4COC[C@H]3CN(C)C4)cccc2c1CC(F)(F)F (single isomer, unassigned) [Example 197] | 26 | 390 | 11500 | 120 | – | – | – | –
